Drawing on ChEMBL document CHEMBL1130134, “Synthesis of carboranes containing an azulene framework and in vitro evaluation as boron carriers” (J Med Chem, 1997), this text covers IC50 and B incorporation for 1 compound.

For assay [1], the system named is B16. Briefly: Compound was tested for the in vitro growth inhibition of B-16 melanoma cells after incubation for 3 days (cytotoxicity), the dose that failed to inhibit cell growth by more than 50% was determined. It counts as functional, cell-based. The following applies: Mus musculus, B16, 72 h.
For assay [2], the system named is B16. The assay can be described thus: Boron incorporation into B-16 melanoma cells(1000000 cells) after 24 hours incubation (10.8 ug of B/mL). It counts as functional, Mus musculus.

On to `CC(C)(c1ccc(O)cc1)c1ccc(O)cc1` [BISPHENOL A], for which the IC50 (as a rule, the concentration at which inhibition is half-maximal) in assay [1] is 8.6 mM. Further, in assay [2], the B incorporation came to 0.31 µg.
